Common to all, as to assay type: in vivo
The subject of experiment [1] is Myzus persicae (Green Peach Aphid). As to the kind of experiment: Activity against Myzus persicae: systemic activity. Conditions: 144 h, test rate of 24 ppm, roots of infested pea seedlings in test solution, 6 days, read-out: mortality. As for the experimental part: Example B6: Activity Against Myzus persicae (Green Peach Aphid). Systemic Activity
Roots of pea seedlings infested with an aphid population of mixed ages were placed directly into aqueous test solutions prepared from 10,000 DMSO stock solutions. The samples were assessed for mortality 6 days after placing seedlings into test solutions.

The test system of experiment [2] is Spodoptera littoralis (Egyptian Cotton Leaf Worm). As to the kind of experiment: Activity against Spodoptera littoralis (lettuce, uptake by the roots from agar). Conditions: 144 h, test rate of 12.5 ppm, lettuce grown on treated agar, Spodoptera eggs, 6 days after infestation, read-out: effect in at least one of the three categories (mortality, anti-feeding, or growth inhibition). An excerpt:
Example B10: Activity Against Spodoptera littoralis (Egyptian Cotton Leaf Worm)
Test compounds were applied by pipette from 10,000 ppm DMSO stock solutions into 24-well plates and mixed with agar. Lettuce seeds were placed onto the agar and the multi well plate was closed by another plate which contained also agar. After 7 days the compound was absorbed by the roots and the lettuce grew into the lid plate. The lettuce leaves were then cut off into the lid plate. Spodoptera eggs were pipetted through a plastic stencil onto a humid gel blotting paper and the lid plate was closed with it. The samples were assessed for mortality, anti-feedant effect and growth inhibition in comparison to untreated samples 6 days after infestation.

For experiment [3] the test system is unchanged. As to the kind of experiment: Activity against Spodoptera littoralis (cotton leaf discs, spray). Particulars: foliar, 72 h, application rate of 200 ppm, cotton leaf discs, L1 larvae, 3 days after infestation, read-out: control (mortality, anti-feeding effect, growth inhibition). As for the experimental part: Example B9: Activity Against Spodoptera littoralis (Egyptian Cotton Leaf Worm)
Cotton leaf discs were placed onto agar in 24-well microtiter plates and sprayed with aqueous test solutions prepared from 10,000 ppm DMSO stock solutions. After drying the leaf discs were infested with five L1 larvae. The samples were assessed for mortality, anti-feeding effect, and growth inhibition in comparison to untreated samples 3 days after infestation. Control of Spodoptera littoralis by a test sample is given when at least one of the categories mortality, anti-feedant effect, and growth inhibition is higher than the untreated sample.

The test system of experiment [4] is Diabrotica balteata (Corn Root Worm). As to the kind of experiment: Activity against Diabrotica balteata. Conditions: 96 h, application rate of 200 ppm, maize sprouts, L2 larvae, 4 days after infestation, read-out: effect in at least one of the two categories (mortality or growth inhibition). As for the experimental part:
Example B2: Activity Against Diabrotica balteata (Corn Root Worm)
Maize sprouts placed onto an agar layer in 24-well microtiter plates were treated with aqueous test solutions prepared from 10,000 ppm DMSO stock solutions by spraying. After drying, the plates were infested with L2 larvae (6 to 10 per well). The samples were assessed for mortality and growth inhibition in comparison to untreated samples 4 days after infestation.

For experiment [5], the system named is Myzus persicae (Green Peach Aphid). As to the kind of experiment: Activity against Myzus persicae: feeding/contact activity. Particulars: foliar, 144 h, application rate of 200 ppm, sunflower leaf discs, aphid population of mixed ages, 6 days after infestation, read-out: mortality. As for the experimental part:
Example B5: Activity Against Myzus persicae (Green Peach Aphid): Feeding/Contact Activity
Sunflower leaf discs were placed onto agar in a 24-well microtiter plate and sprayed with aqueous test solutions prepared from 10,000 ppm DMSO stock solutions. After drying, the leaf discs were infested with an aphid population of mixed ages. The samples were assessed for mortality 6 days after infestation.

The subject of experiment [6] is Euschistus heros (Neotropical Brown Stink Bug). As to the kind of experiment: Activity against Euschistus heros. Particulars: 120 h, application rate of 200 ppm, soybean leaves, N2 nymphs, 5 days after infestation, read-out: effect in at least one of the two categories (mortality or growth inhibition). As for the experimental part:
Example B3: Activity Against Euschistus heros (Neotropical Brown Stink Bug)
Soybean leaves on agar in 24-well microtiter plates were sprayed with aqueous test solutions prepared from 10,000 ppm DMSO stock solutions. After drying the leaves were infested with N2 nymphs. The samples were assessed for mortality and growth inhibition in comparison to untreated samples 5 days after infestation.

Experiment [7] concerns Plutella xylostella (Diamond Back Moth). As to the kind of experiment: Activity against Plutella xylostella. Conditions: 120 h, application rate of 200 ppm, artificial diet, L2 larvae, 5 days after infestation, read-out: effect in at least one of the two categories (mortality or growth inhibition). The procedure: Example B8: Activity Against Plutella xylostella (Diamond Back Moth)
24-well microtiter plates with artificial diet were treated with aqueous test solutions prepared from 10,000 ppm DMSO stock solutions by pipetting. After drying, the plates were infested with L2 larvae (10 to 15 per well). The samples were assessed for mortality and growth inhibition in comparison to untreated samples 5 days after infestation.

Experiment [8] has as its system Bemisia tabaci (Cotton White Fly). As to the kind of experiment: Activity against Bemisia tabaci: feeding/contact activity. Conditions: foliar, 144 h, application rate of 200 ppm, cotton leaf discs, adult white flies, 6 days after incubation. The procedure: Example B1: Activity Against Bemisia tabaci (Cotton White Fly): Feeding/Contact Activity
Cotton leaf discs were placed on agar in 24-well microtiter plates and sprayed with aqueous test solutions prepared from 10,000 ppm DMSO stock solutions. After drying the leaf discs were infested with adult white flies. The samples were checked for mortality 6 days after incubation.

Experimental findings from US10308650B2, “Pesticidally active tetracyclic derivatives with sulfur containing substituents” (Syngenta Participations AG, priority 2014, dated 2019) are described below.

Turning to `CCS(=O)(=O)c1cc2nc(C)sc2cc1-c1nc2cc(C(F)(F)F)ncc2n1C` [Compound A19, 5-ethylsulfonyl-2-methyl-6-[3-methyl-6-(trifluoromethyl)imidazo[4,5-c]pyridin-2-yl]-1,3-benzothiazole], the mortality at 24 ppm in experiment [1] is at least 80%. In addition, the percent effect (mortality, anti-feeding or growth inhibition) at 12.5 ppm in experiment [2] is at least 80%. The mortality at 200 ppm in experiment [3] and in experiment [5] was at least 80% in each case. For the same compound, the percent effect (mortality or growth inhibition) at 200 ppm in experiment [4] and in experiment [6] was at least 80% throughout.
As to `CCS(=O)(=O)c1cc2nnn(C)c2cc1-c1nc2cc(C(F)(F)F)ncc2n1C` [Compound A35, 5-ethylsulfonyl-1-methyl-6-[3-methyl-6-(trifluoromethyl)imidazo[4,5-c]pyridin-2-yl]benzotriazole], the mortality at 24 ppm in experiment [1] is at least 80%. Besides, in experiment [4], the percent effect (mortality or growth inhibition) at 200 ppm was at least 80%. The mortality at 200 ppm in experiment [5] is at least 80%.
Take `CCS(=O)(=O)c1cc2cnccc2cc1-c1nc2cc(C(F)(F)F)ncc2n1C` [Compound A26, 7-ethylsulfonyl-6-[3-methyl-6-(trifluoromethyl)imidazo[4,5-c]pyridin-2-yl]isoquinoline]: the percent effect (mortality or growth inhibition) at 200 ppm in experiment [6] is at least 80%.
In the case of `CC[S+]([O-])c1cc2ccccc2cc1-c1nc2cc(C(F)(F)F)cnc2n1C` (stereo not shown) [Compound A2, 2-(3-ethylsulfinyl-2-naphthyl)-3-methyl-6-(trifluoromethyl)imidazo[4,5-b]pyridine], the percent effect (mortality or growth inhibition) at 200 ppm in experiment [4] and in experiment [6] was at least 80% in each case.
For `CCSc1cc2cnccc2cc1-c1nc2cc(C(F)(F)F)ncc2n1C` [Compound A25, 7-ethylsulfanyl-6-[3-methyl-6-(trifluoromethyl)imidazo[4,5-c]pyridin-2-yl]isoquinoline], the percent effect (mortality or growth inhibition) at 200 ppm in experiment [4] and in experiment [6] was at least 80% in each case.
For `CCS(=O)(=O)c1cc2ncn(C)c2cc1-c1nc2cc(C(F)(F)F)ncc2n1C` (single isomer, unassigned) [Compound A11, 2-(6-ethylsulfonyl-3-methyl-benzimidazol-5-yl)-3-methyl-6-(trifluoromethyl)imidazo[4,5-c]pyridine], the mortality at 24 ppm in experiment [1] is at least 80%. Further, the percent effect (mortality or growth inhibition) at 200 ppm in experiment [4] and in experiment [6] was at least 80% each time. For the same compound, the mortality at 200 ppm in experiment [5] is at least 80%.
Turning to `CCS(=O)(=O)c1cc2c(cc1-c1nc3cc(C(F)(F)F)ncc3n1C)ncn2C` (single isomer, unassigned) [Compound A12, 2-(6-ethylsulfonyl-1-methyl-benzimidazol-5-yl)-3-methyl-6-(trifluoromethyl)imidazo[4,5-c]pyridine], in experiment [1], the mortality at 24 ppm is at least 80%. The mortality at 200 ppm in experiment [5] is at least 80%. Moreover, the percent effect (mortality or growth inhibition) at 200 ppm in experiment [7] and in experiment [6] was at least 80% in each case.
As to `CCS(=O)(=O)c1cc2nc(C)n(C)c2cc1-c1nc2cc(C(F)(F)F)ncc2n1C` (single isomer, unassigned) [Compound A14, 2-(6-ethylsulfonyl-2,3-dimethyl-benzimidazol-5-yl)-3-methyl-6-(trifluoromethyl)imidazo[4,5-c]pyridine], in experiment [5], the mortality at 200 ppm is at least 80%. Also, the percent effect (mortality or growth inhibition) at 200 ppm in experiment [6] was at least 80%.
Turning to `CCS(=O)(=O)c1cc2c(cc1-c1nc3cc(C(F)(F)F)ncc3n1C)nnn2C` [Compound A36, 6-ethylsulfonyl-1-methyl-5-[3-methyl-6-(trifluoromethyl)imidazo[4,5-c]pyridin-2-yl]benzotriazole], the mortality at 24 ppm in experiment [1] was at least 80%. In addition, the percent effect (mortality or growth inhibition) at 200 ppm in experiment [4], in experiment [7] and in experiment [6] was at least 80% throughout. Moreover, in experiment [5], the mortality at 200 ppm is at least 80%.
`CCS(=O)(=O)c1cc2nn[nH]c2cc1-c1nc2cc(C(F)(F)F)ncc2n1C` [Compound A17, 2-(6-ethylsulfonyl-3H-benzotriazol-5-yl)-3-methyl-6-(trifluoromethyl)imidazo[4,5-c]pyridine]: in experiment [6], the percent effect (mortality or growth inhibition) at 200 ppm is at least 80%.
On to `CCS(=O)(=O)c1cc2c(cc1-c1nc3cc(C(F)(F)F)ncc3n1C)nc(C)n2C` (single isomer, unassigned) [Compound A15, 2-(6-ethylsulfonyl-1,2-dimethyl-benzimidazol-5-yl)-3-methyl-6-(trifluoromethyl)imidazo[4,5-c]pyridine], for which the mortality at 24 ppm in experiment [1] was at least 80%. Moreover, the mortality at 200 ppm in experiment [5] is at least 80%. Further, the percent effect (mortality or growth inhibition) at 200 ppm in experiment [7] and in experiment [6] was at least 80% each time.
On to `CCSc1cc2ccccc2cc1-c1nc2cc(C(F)(F)F)cnc2n1C` [Compound A1, 2-(3-ethylsulfanyl-2-naphthyl)-3-methyl-6-(trifluoromethyl)imidazo[4,5-b]pyridine], for which the percent effect (mortality or growth inhibition) at 200 ppm in experiment [4] and in experiment [6] was at least 80% throughout.
Turning to `CCS(=O)(=O)c1cc2ncsc2cc1-c1nc2cc(C(F)(F)F)ncc2n1C` [Compound A30, 5-ethylsulfonyl-6-[3-methyl-6-(trifluoromethyl)imidazo[4,5-c]pyridin-2-yl]-1,3-benzothiazole], the percent effect (mortality or growth inhibition) at 200 ppm in experiment [4], in experiment [7] and in experiment [6] was at least 80% each time.
As to `CCS(=O)(=O)c1cc2nc(-c3ccccc3)[nH]c2cc1-c1nc2cc(C(F)(F)F)ncc2n1C` [Compound A16, 2-(6-ethylsulfonyl-2-phenyl-3H-benzimidazol-5-yl)-3-methyl-6-(trifluoromethyl)imidazo[4,5-c]pyridine], the percent effect (mortality or growth inhibition) at 200 ppm in experiment [7] is at least 80%.
Turning to `CCS(=O)(=O)c1cc2c[n+]([O-])ccc2cc1-c1nc2cc(C(F)(F)F)ncc2n1C` [Compound A27, 7-ethylsulfonyl-6-[3-methyl-6-(trifluoromethyl)imidazo[4,5-c]pyridin-2-yl]-2-oxido-isoquinolin-2-ium], in experiment [1], the mortality at 24 ppm was at least 80%. In addition, the mortality at 200 ppm in experiment [8] and in experiment [5] was at least 80% throughout. The percent effect (mortality or growth inhibition) at 200 ppm in experiment [6] was at least 80%.
As for `CCS(=O)(=O)c1cc2[nH]c(C(F)(F)F)nc2nc1-c1nc2cc(C(F)(F)F)ncc2n1C` [Compound A34, 6-ethylsulfonyl-5-[3-methyl-6-(trifluoromethyl)imidazo[4,5-c]pyridin-2-yl]-2-(trifluoromethyl)-1H-imidazo[4,5-b]pyridine], the mortality at 24 ppm in experiment [1] is at least 80%. Also, the percent effect (mortality or growth inhibition) at 200 ppm in experiment [4] and in experiment [6] was at least 80% throughout.
As to `CCS(=O)(=O)c1cc2nccnc2cc1-c1nc2cc(C(F)(F)F)ncc2n1C` [Compound A20, 6-ethylsulfonyl-7-[3-methyl-6-(trifluoromethyl)imidazo[4,5-c]pyridin-2-yl]quinoxaline], in experiment [1], the mortality at 24 ppm was at least 80%. Further, the percent effect (mortality or growth inhibition) at 200 ppm in experiment [4] is at least 80%.

Broadly, the mortality is the share of the test organisms that died.
